pEC50: −log10 of the molar value. Several values for one entry are separate records, joined by “and”; a condition that tells them apart may be missing. Identical values can stand only once. Where no end group is shown, it is not given here.
Columns and labels:
[1] = test system: POMC neurons expressing hM4Di; experiment: Patch clamp of hM4Di-expressing POMC neurons on CNO application; assay type: cell-based, mouse; conditions: for Firing rate / Resting membrane potential (RMP): hM4Di-expressing POMC neurons, CNO
Protocol: Slices were moved to a submerged-type recording chamber with continuous perfusion of carbogenated recording aCSF heated to 31 °C at a flow rate of approximately 2 mL/min. Tested compounds were added through bath perfusion. To block synaptic inputs, the aCSF contained 100 nM tetrodotoxin (TTX citrate; Tocris, 1069), 100 μM picrotoxin (Sigma-Aldrich, P8390), 100 μM D(−)-2-Amino-5-phosphonopentanoic acid (D-AP-V; Tocris, 0106) and 20 μM CNQX (CNQX-disodium; Tocris, 1045). To block ERK1/2 activation or PI3K signaling pathway, 10 µM of PD98059 (Tocris, 1213) or 1 µM of wortmannin (Tocris, 1232) was added to the bath solution for at least 30 min before any measurement. To test the effect of CNO on POMC neurons expressing the DREDD hM4Di receptor, 5 μM of CNO were applied for 1 to 2 min.
POMC or AgRP-expressing neurons in the ARC were identified with a brief exposure to epifluorescence on an upright microscope (Nikon FN1) using a 40X water-immersion objective and differential interference contrast optics. The pipette solution contains (in mM) 127 K-Methanesulfonate, 5 KCl, 10 HEPES, 0.3 EGTA, 4 Mg-ATP, 0.3 Na-GTP, and is of a pH adjusted to 7.3 with KOH and a 288 mOsm/kg osmolality. The patch pipettes have a resistance of 4-6 MΩ when filled with the pipette solution. […] The basal resting membrane potential and firing rate were recorded for around 3 min after breaking in, and bath perfusion of SHLP2 was applied for 3 to 5 min. Neurons were classified as responsive if there was a change in resting membrane potential of at least 2 mV during the period of drug application. The access resistance (Ra) was monitored throughout the experiment, and cells with a Ra of more than 35 MΩ were excluded from the analysis. Data were acquired at 10 kHz, filtered with a lowpass filter at 5 kHz and analyzed offline with Clampfit 10 (Molecular Devices). The calculated liquid junction potential was +9.55 mV and used to correct all data.

CXCR7 [2] = biological target: T1, CXCR7 (Homo sapiens, UniProt P25106); experiment: PathHunter β-Arrestin recruitment to CXCR7, dose response; assay type: cell-based; conditions: 10-point curve, Hill / four-parameter logistic
T1 construct: host or cells: CHO-K1
T1 sequence (P25106 whole entry): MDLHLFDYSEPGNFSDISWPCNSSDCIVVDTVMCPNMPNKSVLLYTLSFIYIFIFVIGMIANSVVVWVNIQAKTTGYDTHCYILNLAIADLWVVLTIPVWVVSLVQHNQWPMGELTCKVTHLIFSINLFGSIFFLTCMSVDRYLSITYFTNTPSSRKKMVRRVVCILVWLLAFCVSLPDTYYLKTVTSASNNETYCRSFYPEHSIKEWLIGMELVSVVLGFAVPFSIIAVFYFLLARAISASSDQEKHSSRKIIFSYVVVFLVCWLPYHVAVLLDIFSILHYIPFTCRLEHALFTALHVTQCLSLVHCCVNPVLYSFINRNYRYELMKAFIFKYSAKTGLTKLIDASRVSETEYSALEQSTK
T1 sequence (P32121 whole entry partner): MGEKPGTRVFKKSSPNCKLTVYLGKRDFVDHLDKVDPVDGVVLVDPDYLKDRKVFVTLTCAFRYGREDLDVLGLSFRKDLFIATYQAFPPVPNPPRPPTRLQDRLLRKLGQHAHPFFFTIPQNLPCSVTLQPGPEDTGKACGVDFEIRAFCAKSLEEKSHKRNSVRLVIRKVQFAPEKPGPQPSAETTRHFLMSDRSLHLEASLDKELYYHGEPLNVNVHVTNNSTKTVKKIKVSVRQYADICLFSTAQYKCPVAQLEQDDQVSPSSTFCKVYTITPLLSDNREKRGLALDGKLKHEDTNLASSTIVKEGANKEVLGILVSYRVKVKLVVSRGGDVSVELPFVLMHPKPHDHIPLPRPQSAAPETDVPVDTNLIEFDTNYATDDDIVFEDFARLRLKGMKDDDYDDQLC
Protocol: The GPCR profiling was performed using PathHunter GPCRmax Arrestin recruitment assay with 168 known GPCRs provided by DiscoverX (Eurofins). This assay utilized Chinese Hamster Ovary CHO-K1 cells expressing GPCR tagged with ProLink (PK) and β-Arrestin2 tagged with a deletion mutant of β-galactosidase as an enzyme acceptor. Upon the binding of the ligand to the GPCR, the recruitment of tagged β-Arrestin2 to the GPCR causes the complementation of a functional β-galactosidase, hydrolyzing a chemiluminescence substrate. The assay was performed with known ligands in agonist and antagonist modes, with data presented as: %Activityagonist=100%×MeanRLUSHLP2−MeanRLU(vehiclecontrol)/MeanMAXRLUcontrolligand−MeanRLU(vehiclecontrol) and %Activityantagonist=100%×1−MeanRLUSHLP2−MeanRLU(vehiclecontrol)/MeanMAXRLUcontrolligand−MeanRLU(vehiclecontrol)
The dose response (EC50) was built using a 10-point curve and fit to a Hill Equation.

[3] = Dot blot for SHLP2 in CSF after IP injection; assay type: in vivo, mouse
Protocol: The immuno-dot blot assay was performed by using the human and mice serum or mouse CSF. 0.2 μm nitrocellulose membranes were activated with ultrapure water (Invitrogen, 10977015), and 2 μL of samples were spotted on a membrane and dried for 30 mins at RT. The membrane was blocked in 5% BSA prepared in 1X Tris Buffered Saline-0.1% Tween 20 (TBST) for 1 h before being overnight incubated with anti-SHLP2 at 4 °C. Membranes were washed 3 times with 1X TBST, then incubated with anti-rabbit IgG (Invitrogen, 31460, 1:3000). The membranes were washed and visualized using the ImageQuant™ LAS 4000 (GE Healthcare Life Science). Blot densitometry was measured using ImageJ software (NIH Image). To quantitate the immuno-dot blot assay results, we prepared controls (total protein level stained by amido black), and subsequently established a calibration figure for each run of the assay.

[4] = cited from earlier work
Text: One of the first MDPs discovered is Humanin, a 24-amino-acid peptide encoded by the mitochondrial 16S ribosomal RNA (rRNA) gene. It was originally identified in 2001 during a screening for neuroprotective factors against Alzheimer’s disease[6],[7]. […] Another MDP called Mito chondrial Open Reading Frame of the 12S rRNA-c (MOTS-c) is encoded by the mitochondrial 12S rRNA gene[9]. MOTS-c is a mitochondria-originated metabolic hormone which ... || In addition to humanin and MOTS-c, a recent study has identified an additional six small humanin-like peptides (SHLP1 to 6) encoded by the 16S rRNA gene of the mtDNA genome. […] However, the mechanism by which SHLP2 affec ...

CXCR7 [5] = experiment: Nanoluc-complementation (NanoBiT) β-Arrestin2 recruitment to CXCR7; assay type: cell-based, human; conditions: HEK293T, n = 4 each group
Protocol: The recruitment assay was performed based on Nano-luciferase[49]. The vectors (50 ng; gift of Prof. Jong-Ik Hwang, Korea University) encoding human CXCR7, CXCR4, and β-Arrestin2 tagged with SmBiT and LgBiT under Ubiquitin C promoter[49] were transfected into HEK293T cells in a 96-well clear bottom culture plate using Lipofectamine 2000 according to the manufacturer’s protocol. Cells were washed three times with an assay buffer containing (in mM) 140 NaCl, 2.5 KCl, 10 Glucose, 5 HEPES, 2 CaCl2, and 2 MgSO4, pH 7.4 after 24 h. Cells were then incubated with 5 µM Coelenterazine-h (Promega, S201) in the assay buffer for 30 min in the dark, and luminescence was measured at 35 °C in the Victor Nivo Multimode Plate reader (PerkinElmer). The background luminescence was measured for at least 10 min before the addition of ligands, and signals were monitored for at least 60 min after the application of SHLP2 or recombinant mouse CXCL12 (R&D systems, 460-SD-010/CF). The specificity of SHLP2 β-Arrestin2 recruitment through CXCR7 was also confirmed through the assay with CXCR4. Luminescent signals were collected through a 700 nm-IR filter and data were shown as light counts per each cycle of measurement.

[6] = biological target: CXCR7 tagged with ProLink (PathHunter CHO-K1 cell line) (UniProt P25106)
Chain of CXCR7 tagged with ProLink (PathHunter CHO-K1 cell line) (P25106 whole entry): as the sequence (P25106 whole entry) above

adipocytes = conditions: in vitro; cited from earlier work
Text: In addition to humanin and MOTS-c, a recent study has identified an additional six small humanin-like peptides (SHLP1 to 6) encoded by the 16S rRNA gene of the mtDNA genome. […] However, the mechanism by which SHLP2 affec ...

[7] = Angiotensin II-induced water consumption test (Supplementary Fig. 4a); assay type: in vivo, mouse; conditions: After (angiotensin II); individual animals
Protocol: For intracerebroventricular (ICV) cannulation, mice were anesthetized by intraperitoneal injection (IP) of Zoletil (titelamine/zolazepam 30 mg/kg) and Rompun (xylazine 10 mg/kg), then placed onto a stereotaxic apparatus. After setting the ventricular coordinates, a permanent 26-gauge stainless steel cannula (Plastic one, Inc.) was implanted in the third ventricle (1.8 mm caudal to bregma, and 5.0 mm ventral to the sagittal sinus according to the Paxinos and Franklin’s atlas) and secured to the skull surface using a dental acrylic (Vertex). Mice were individually housed and allowed to recover for at least 1 week. The angiotensin II-induced water consumption test was performed to confirm the position of the ICV cannulation. […] Mice with no angiotensin II-induced thirst behavior were excluded from the experiments.

With `C[N+]1([O-])CCN(C2=Nc3cc(Cl)ccc3Nc3ccccc32)CC1` [CNO, Clozapine-N-oxide] the “effect on POMC neurons expressing hM4Di” value ([1]; 5 μM CNO, 1 to 2 min, n = 6 from 2 animals) was “induced hyperpolarization of POMC neurons expressing hM4Di”, the “resting membrane potential and firing rate of POMC neurons expressing hM4Di” value ([1]; 5 μM CNO, n = 6 from 2 animals) was “decreases in the resting membrane potentials (h) and firing rates (i)” and the Firing rate ([1]; replicate 1 of 6) was 0.3384. For the same molecule, the “Resting membrane potential (RMP)” value ([1]; replicate 1 of 6) was -60.0566, the Firing rate ([1]; replicate 2 of 6) was 0 and the “Resting membrane potential (RMP)” value ([1]; replicate 2 of 6) was -63.8078. The Firing rate ([1]; replicate 3 of 6) was 0.1759, the “Resting membrane potential (RMP)” value ([1]; replicate 3 of 6) was -77.9333 and the Firing rate ([1]; replicate 4 of 6) was 0.2189. For the same molecule, the “Resting membrane potential (RMP)” value ([1]; replicate 4 of 6) was -57.1355, the Firing rate ([1]; replicate 5 of 6) was 0.1654 and the “Resting membrane potential (RMP)” value ([1]; replicate 5 of 6) was -59.3185. The Firing rate ([1]; replicate 6 of 6) was 0.2879 and the “Resting membrane potential (RMP)” value ([1]; replicate 6 of 6) was -55.5068.
For “MGVKFFTLSTRFFPSVQRAVPLWTNS [SHLP2, Small humanin-like peptide 2]”, the pEC50 (CXCR7 [2]) was 6.01, the “SHLP2 in CSF, relative dot blot densitometry” value ([3]; IP injection, individual animals (n = 3)) was 3.163 and 4.493 and 3.525 and the “SHLP2 detection in CSF” value ([3]; systemic (IP) injection) was “highly detected in the CSF”.
In the case of “Mito chondrial Open Reading Frame of the 12S rRNA-c (MRWQEMGYIFYPRKLR; UniProt A0A0C5B5G6 1-16, looked up) [MOTS-c, mitochondrial-derived peptide encoded by the mitochondrial 12S rRNA gene]”, the lifespan [4] is given as “promote lifespan”.
In the case of Small humanin-like peptide 1 [SHLP1], the “CXCR7 activation (β-Arrestin2 recruitment) by SHLP1 to 6” value (“CXCR7 activation” below) (CXCR7 [5]) was “but not by SHLP1, 3, 4, 5, or 6”.
Work on “Small humanin-like peptide 2 (SHLP2), biotinylated” yielded a PathHunter β-Arrestin recruitment to CXCR7 (screen of 168 GPCRs, agonist mode): relative agonistic activity of SHLP2 as percent of the known ligand SDF1α/CXCL12 (% of the known ligand SDF1α/CXCL12) [6] of 70 and a PathHunter β-Arrestin recruitment to CXCR7, dose response to SHLP2 (10-point curve): EC50 [6] of 0.97 µM.
In the case of Small humanin-like peptide 3 [SHLP3], the “CXCR7 activation” value (CXCR7 [5]) is given as “but not by SHLP1, 3, 4, 5, or 6” and the “cellular differentiation and insulin sensitivity in adipocytes” value (adipocytes) is given as “enhance cellular differentiation and insulin sensitivity in adipocytes in vitro”.
In the case of Small humanin-like peptide 4 [SHLP4], the “CXCR7 activation” value (CXCR7 [5]) was “but not by SHLP1, 3, 4, 5, or 6”.
With Small humanin-like peptide 5 [SHLP5] the “CXCR7 activation” value (CXCR7 [5]) was “but not by SHLP1, 3, 4, 5, or 6”.
In the case of Small humanin-like peptide 6 [SHLP6], the “CXCR7 activation” value (CXCR7 [5]) was “but not by SHLP1, 3, 4, 5, or 6”.
For “angiotensin II (DRVYIHPF; Angiotensin-2; UniProt P01019 25-32, looked up) [used in the water consumption test to confirm ICV cannula position]”, the “Fig. S4a water intake” value [7] was 0.37 g and 0.63 g and 0.3 g and 0.21 g.
For “humanin: 24-amino-acid peptide encoded by the mitochondrial 16S ribosomal RNA gene (MAPRGFSCLLLLTSEIDLPVKRRA; UniProt Q8IVG9 1-24, looked up)”, the lifespan [4] is given as “promote lifespan”.
